Measured values: PubChem BioAssay AID1259407 (Chemical Carcinogenesis Research Information System (CCRIS), 2018)
Calls of active or inactive are those of the source. How the calls were made is not given here.

System: CCRIS mutagenicity, Ames/micronucleus/aberration tests
Assay: CCRIS mutagenicity studies
[1] = Test System: AMES SALMONELLA TYPHIMURIUM, Strain/Indicator: TA1535, Metabolic Activation: NONE, Method: STANDARD PLATE

| Compound | mutagenic call (Test System: AMES SALMONELLA TYPHIMURIUM, Strain/Indicator: TA1535, Metabolic Activation: HAMSTER, LIVER, S-9, AROCLOR 1254, Method: STANDARD PLATE) | mutagenic call [1] | mutagenic call (Test System: AMES SALMONELLA TYPHIMURIUM, Strain/Indicator: TA98, Metabolic Activation: NONE, Method: STANDARD PLATE) | mutagenic call (Test System: AMES SALMONELLA TYPHIMURIUM, Strain/Indicator: TA100, Metabolic Activation: NONE, Method: STANDARD PLATE) | mutagenic call (Test System: E. COLI, Strain/Indicator: WP2 UVRA(P), Metabolic Activation: NONE, Method: STANDARD PLATE) | mutagenic call (Test System: E. COLI, Strain/Indicator: WP2 UVRA, Metabolic Activation: NONE, Method: FLUCTUATION TEST) | mutagenic call (Test System: E. COLI, Strain/Indicator: WP2 UVRA, Metabolic Activation: NONE, Method: STANDARD PLATE) | mutagenic call (Test System: AMES SALMONELLA TYPHIMURIUM, Strain/Indicator: TA98, Metabolic Activation: HAMSTER, LIVER, S-9, AROCLOR 1254, Method: PREINCUBATION) | mutagenic call (Test System: AMES SALMONELLA TYPHIMURIUM, Strain/Indicator: TA98, Metabolic Activation: NONE, Method: PREINCUBATION) | mutagenic call (Test System: AMES SALMONELLA TYPHIMURIUM, Strain/Indicator: TA98, Metabolic Activation: RAT, LIVER, S-9, AROCLOR 1254, Method: PREINCUBATION) | mutagenic call (Test System: AMES SALMONELLA TYPHIMURIUM, Strain/Indicator: TA100, Metabolic Activation: HAMSTER, LIVER, S-9, AROCLOR 1254, Method: PREINCUBATION) | mutagenic call (Test System: AMES SALMONELLA TYPHIMURIUM, Strain/Indicator: TA100, Metabolic Activation: NONE, Method: PREINCUBATION) | mutagenic call (Test System: AMES SALMONELLA TYPHIMURIUM, Strain/Indicator: TA100, Metabolic Activation: RAT, LIVER, S-9, AROCLOR 1254, Method: PREINCUBATION) | mutagenic call (Test System: AMES SALMONELLA TYPHIMURIUM, Strain/Indicator: TA1535, Metabolic Activation: HAMSTER, LIVER, S-9, AROCLOR 1254, Method: PREINCUBATION) | mutagenic call (Test System: AMES SALMONELLA TYPHIMURIUM, Strain/Indicator: TA1535, Metabolic Activation: NONE, Method: PREINCUBATION) | mutagenic call (Test System: AMES SALMONELLA TYPHIMURIUM, Strain/Indicator: TA1535, Metabolic Activation: RAT, LIVER, S-9, AROCLOR 1254, Method: PREINCUBATION) | mutagenic call (Test System: AMES SALMONELLA TYPHIMURIUM, Strain/Indicator: TA1537, Metabolic Activation: HAMSTER, LIVER, S-9, AROCLOR 1254, Method: PREINCUBATION) | mutagenic call (Test System: AMES SALMONELLA TYPHIMURIUM, Strain/Indicator: TA1537, Metabolic Activation: NONE, Method: PREINCUBATION) | mutagenic call (Test System: AMES SALMONELLA TYPHIMURIUM, Strain/Indicator: TA1537, Metabolic Activation: RAT, LIVER, S-9, AROCLOR 1254, Method: PREINCUBATION) | mutagenic call (Test System: MOUSE LYMPHOMA, Strain/Indicator: L5178Y (TK+/TK-), Metabolic Activation: NONE, Method: SUSPENSION/PLATE) |
| --- | --- | --- | --- | --- | --- | --- | --- | --- | --- | --- | --- | --- | --- | --- | --- | --- | --- | --- | --- | --- |
| CN(Cc1ccc(C#N)cc1)N=O | active; positive | inactive; negative | – | – | – | – | – | – | – | – | – | – | – | – | – | – | – | – | – | – |
| ONc1ccc(Cl)cc1 | – | inactive; negative | inactive; negative | inactive; negative | inactive; negative | inactive; negative | inactive; negative | – | – | – | – | – | – | – | – | – | – | – | – | – |
| c1ccc2occc2c1 | – | – | – | – | – | – | – | inactive; negative | inactive; negative | inactive; negative | inactive; negative | inactive; negative | inactive; negative | inactive; negative | inactive; negative | inactive; negative | inactive; negative | inactive; negative | inactive; negative | active; positive |
